Source: patent publication US7189691B2, “Methods and compositions for treating leukemia” (The Administrators of the Tulane Educational Fund, priority 2004, dated 2007)
“Also recorded” adds a separate entry of the source.

Experiments:
[1] = molecular target: T1, AF4-AF9 interaction (Homo sapiens, UniProt P42568); assay: Enzyme-linked protein binding assay, GST-AF4(749-775) and biotinylated AF9; conditions: peptide 20 μg/ml; FIG. 2A
T1 construct: made in house; host or cells: GST-AF4 from E. coli; AF9 by coupled in vitro transcription/translation (Promega)
T1 sequence (P42568 211-568): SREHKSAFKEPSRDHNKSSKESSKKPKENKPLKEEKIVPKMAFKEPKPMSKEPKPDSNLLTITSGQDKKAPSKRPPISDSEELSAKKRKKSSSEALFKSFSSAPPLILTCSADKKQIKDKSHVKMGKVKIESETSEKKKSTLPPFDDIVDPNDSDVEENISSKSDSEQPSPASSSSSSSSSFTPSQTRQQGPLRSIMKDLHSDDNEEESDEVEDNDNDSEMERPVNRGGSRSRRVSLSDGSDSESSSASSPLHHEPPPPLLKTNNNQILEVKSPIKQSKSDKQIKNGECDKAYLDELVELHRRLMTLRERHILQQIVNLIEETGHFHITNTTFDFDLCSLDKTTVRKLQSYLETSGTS
Method: Next, an enzyme-linked protein binding assay was developed as a potential high throughput tool to semi-quantitatively assess the ability of various compounds to disrupt the AF4-AF9 interaction in vitro (FIGS. 2A and 2B).
GST-AF4 (749–775) SEQ ID NO: 107 was bound to glutathione-coated 96-well plates and incubated with biotinylated AF9 in conjunction with 20 μg/ml of the following peptides: • (a) Pen-[…], a fusion protein of PENETRATIN™ transporter peptide to the amino terminus of […](SEQ ID NO: 110, PFmut), • (b) Pen-[…], a fusion protein of the transporter protein PENETRATIN™ to the amino terminus of […](SEQ ID NO: 2; or PFWT), • (c) […] or […](SEQ ID NO: 111); • (d) […] or […] (SEQ ID NO: 112); • (e) […] or […](SEQ ID NO: 113), or with • (f) DMSO, or • (g) GST-Cx, a control.
The plate was washed and the retention of AF9 was determined by a colorimetric assay using streptavidin-alkaline phosphatase and pNPP as a substrate. […] At this same peptide concentration, PFmut (a) in col. […] The 10 amino acid peptide (d) in col. 6 is the smallest molecule found to have activity in vitro.

[2] = tested on: KP-L-RY leukemia cell line; assay: MTT viability assay; type: cell-based; conditions: 72 h, differing concentrations
Method: All cell lines were maintained in RPMI 1640+10% FCS. 100 μl aliquots of cell suspension (5×10^5 cells/ml) were cultured in flat-bottomed 96 well plates in the presence of different concentrations of peptides. After 72 h incubation at 37° C. in humidified air containing 5% CO2, viable cell number was determined by MTT assay as follows: 10 μl of 3-[4,5-dimethylthiazol-2-yl]-2,5-diphenyl tetrazolium bromide (MTT) (5 mg/ml concentration) (Sigma) was added to each well and incubated further for 6 h. Formazan crystals that are formed during incubation were dissolved in 100 μl of acidified isopropanol. The optical density at 550 nm (which is linearly related to the number of viable cells) was measured using a plate spectrophotometer. Growth characteristics of the leukemia cell lines were also determined for cells by Trypan Blue exclusion.

[3] = tested on: B1 cells; assay: Cell cycle analysis (PI DNA staining, flow cytometry); type: cell-based; conditions: for proportion of cells in G1 / proportion of cells in G2 / proportion of cells in S: G1:S:G2 ratio
Method: Leukemia cells were subjected to cell cycle analyses using a Cellular DNA flow cytrometric analysis kit (Roche) according to manufacturers' protocols to determine if PFWT might also induce cell cycle arrest. B1 cells were treated with peptides as outlined above and fixed. For DNA staining, cells were harvested and washed and resuspended with PBS at a concentration of 10^6 cells/ml. 1 unit/ml of RNase and 50 μg/mI of PI was added to this suspension and incubated at 37° C. for 1 hr and analyzed by flow cytometry using Coulter benchtop flow cytometer.

[4] = tested on: B1 cells; assay: Annexin-V/PI binding assay (flow cytometry); type: cell-based; conditions: treated for 24 h
Method: To test the possibility that growth inhibition of t(4;11) leukemia cells exposed to PFWT is the result of apoptotic cell death, annexin-V labeling of the cell membrane of the leukemic cells examined in Example 5 was used to assess apoptosis as follows (Koopman, G., et al., Blood 1994 84: 1415–1420.). Annexin V binding assays were carried out using a Vibrant™ apoptosis kit (Molecular Probes). […] For annexin V-propidium iodide (PI) staining, cells were harvested, washed once with PBS and resuspended in 100 μl annexin binding buffer. 5 μl annexin V conjugated to Alexa Fluor 488 and 2 μl of 100 μg/ml PI were added to the cell suspension and incubated at room temperature for 15 minutes. The cells were then washed once in annexin binding buffer and resuspended in 400 μl annexin binding buffer. These samples were then analyzed by flow cytometry using Coulter benchtop flow cytometer. The cells were excited by a 488 nm wavelength laser beam and the emission was measured using a 530 nm filter for annexin V and a 575 nm filter for PI.

SMILES	AF9 binding to GST-AF4 (retention of AF9) [1]	cell viability [2]	proportion of cells in G1 [3]	proportion of cells in G2 [3]	proportion of cells in S [3]	sub-G1 population (of all events) [3]	cells in early stages of apoptosis (Annexin-V binding, exclusion of PI) [4]	cells in later stages of apoptosis (positive for Annexin-V and PI) [4]
CC[C@H](C)[C@H](NC(=O)[C@H](CCC(N)=O)NC(=O)[C@@H](N)CCCNC(=N)N)C(=O)N[C@@H](CCCCN)C(=O)N[C@@H](Cc1c[nH]c2ccccc12)C(=O)N[C@@H](Cc1ccccc1)C(=O)N[C@@H](CCC(N)=O)C(=O)N[C@@H](CC(N)=O)C(=O)N[C@@H](CCCNC(=N)N)C(=O)N[C@@H](CCCNC(=N)N)C(=O)N[C@@H](CCSC)C(=O)N[C@@H](CCCCN)C(=O)N[C@@H](Cc1c[nH]c2ccccc12)C(=O)N[C@@H](CCCCN)C(=O)N[C@@H](CCCCN)C(=O)N[C@@H](CC(C)C)C(=O)N[C@@H](Cc1c[nH]c2ccccc12)C(=O)N[C@@H](CCC(=O)O)C(=O)N[C@@H](CCCCN)C(=O)N[C@@H](CO)C(=O)N[C@@H](CC(=O)O)C(=O)N[C@@H](CC(C)C)C(=O)N[C@@H](CC(=O)O)C(=O)N[C@@H](CC(C)C)C(=O)N[C@@H](CC(C)C)C(=O)N[C@@H](CO)C(=O)N[C@@H](CCCNC(=N)N)C(=O)N[C@H](C(=O)N1CCC[C@H]1C(=O)O)C(C)C [PFmut]	interferes with AF9 binding, but a significant amount of AF9 remains bound in the well	much less sensitive	52	8	40	–	–	–
CC[C@H](C)[C@H](NC(=O)[C@H](CCCCN)NC(=O)[C@@H](NC(=O)[C@H](Cc1c[nH]c2ccccc12)NC(=O)[C@H](CC(C)C)NC(=O)[C@H](CCCCN)NC(=O)[C@H](CCCCN)NC(=O)[C@H](Cc1c[nH]c2ccccc12)NC(=O)[C@H](CCCCN)NC(=O)[C@H](CCSC)NC(=O)[C@H](CCCNC(=N)N)NC(=O)[C@H](CCCNC(=N)N)NC(=O)[C@H](CC(N)=O)NC(=O)[C@H](CCC(N)=O)NC(=O)[C@H](Cc1ccccc1)NC(=O)[C@H](Cc1c[nH]c2ccccc12)NC(=O)[C@H](CCCCN)NC(=O)[C@@H](NC(=O)[C@H](CCC(N)=O)NC(=O)[C@@H](N)CCCNC(=N)N)[C@@H](C)CC)C(C)C)C(=O)N[C@@H](CC(=O)O)C(=O)N[C@@H](CC(C)C)C(=O)N[C@@H](CC(=O)O)C(=O)N[C@@H](CC(C)C)C(=O)N[C@@H](CC(C)C)C(=O)N[C@@H](CO)C(=O)N[C@@H](CCCNC(=N)N)C(=O)N[C@H](C(=O)N1CCC[C@H]1C(=O)O)C(C)C [PFWT]	almost completely block AF9 binding	diminished; also recorded: inhibits	47	8	45	51%	45%	35%
